Test results reported in PubChem BioAssay AID2060885 (Molecular Pharmacology Branch, DTP, NCI, 2025).
pIC50: −log10 of the molar value.

Tested on: NCI-H23 complex spheroids with HUVEC/MSC, viability
Experiment: Anticancer human tumor NCI-H23 cell line growth inhibition [RAS];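 note: spheroids exposed to compound for 7 days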;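 for viability, T/C: 100% = DMSO vehicle control viability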
Conditions: for pIC50: curve of first compound; for viability, T/C: stronger effect = lower value; active = viability on the fitted dose curve at most 10% of control; inactive = the rest
Summary of the method: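 Tumour cells grown as complex spheroids with HUVEC endothelial cells and mesenchymal stem cells, treated with RAS pathway inhibitor combinations. Each agent spans half-log steps from near clinical Cmax, or 10 microM where Cmax is unknown.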

[1] = second compound 0.000949 µM, first compound 0.000949 µM
[2] = second compound 0.000949 µM, first compound 0.003 µM
[3] = second compound 0.000949 µM, first compound 0.00949 µM
[4] = second compound 0.000949 µM, first compound 0.03 µM
[5] = second compound 0.000949 µM, first compound 0.0949 µM
[6] = second compound 0.000949 µM, first compound 0.3 µM
[7] = second compound 0.003 µM, first compound 0.000949 µM
[8] = second compound 0.003 µM, first compound 0.003 µM
[9] = second compound 0.003 µM, first compound 0.00949 µM
[10] = second compound 0.003 µM, first compound 0.03 µM
[11] = second compound 0.003 µM, first compound 0.0949 µM
[12] = second compound 0.003 µM, first compound 0.3 µM
[13] = second compound 0.00949 µM, first compound 0.000949 µM
[14] = second compound 0.00949 µM, first compound 0.003 µM
[15] = second compound 0.00949 µM, first compound 0.00949 µM
[16] = second compound 0.00949 µM, first compound 0.03 µM
[17] = second compound 0.00949 µM, first compound 0.0949 µM
[18] = second compound 0.00949 µM, first compound 0.3 µM
[19] = second compound 0.03 µM, first compound 0.000949 µM
[20] = second compound 0.03 µM, first compound 0.003 µM
[21] = second compound 0.03 µM, first compound 0.00949 µM
[22] = second compound 0.03 µM, first compound 0.03 µM
[23] = second compound 0.03 µM, first compound 0.0949 µM
[24] = second compound 0.03 µM, first compound 0.3 µM
[25] = second compound 0.0949 µM, first compound 0.000949 µM
[26] = second compound 0.0949 µM, first compound 0.003 µM
[27] = second compound 0.0949 µM, first compound 0.00949 µM
[28] = second compound 0.0949 µM, first compound 0.03 µM
[29] = second compound 0.0949 µM, first compound 0.0949 µM
[30] = second compound 0.0949 µM, first compound 0.3 µM
[31] = second compound 0.3 µM, first compound 0.000949 µM
[32] = second compound 0.3 µM, first compound 0.003 µM
[33] = second compound 0.3 µM, first compound 0.00949 µM
[34] = second compound 0.3 µM, first compound 0.03 µM
[35] = second compound 0.3 µM, first compound 0.0949 µM
[36] = second compound 0.3 µM, first compound 0.3 µM

C=CC(=O)N1CCN(c2nc(OCC3CCCN3C)nc3c(F)c(-c4nc(N)cc(C)c4C(F)(F)F)c(Cl)cc23)C(C)C1 (stereo unspecified) + CCn1c(-c2cc(N3CCN(C)CC3)cnc2C(C)OC)c2c3cc(ccc31)-c1csc(n1)CC(NC(=O)C1CC1C)C(=O)N1CCCC(N1)C(=O)OCC(C)(C)C2
> 8.50: pIC50 (second compound 0.000949 µM) | pIC50 (second compound 0.003 µM) | pIC50 (second compound 0.00949 µM) | pIC50 (second compound 0.03 µM) | pIC50 (second compound 0.0949 µM) | pIC50 (second compound 0.3 µM)
inactive: viability, T/C (second compound 0.000949 µM, first compound 0.00316 µM) 32.5% | viability, T/C (second compound 0.000949 µM, first compound 0.01 µM) 33% | viability, T/C (second compound 0.000949 µM, first compound 0.0316 µM) 22.8% | viability, T/C (second compound 0.000949 µM, first compound 0.1 µM) 30.2% | viability, T/C (second compound 0.000949 µM, first compound 0.316 µM) 28.8% | viability, T/C (second compound 0.000949 µM, first compound 1 µM) 23.3% | viability, T/C (second compound 0.003 µM, first compound 0.00316 µM) 32.6% | viability, T/C (second compound 0.003 µM, first compound 0.01 µM) 26.3% | viability, T/C (second compound 0.003 µM, first compound 0.0316 µM) 23.6% | viability, T/C (second compound 0.003 µM, first compound 0.1 µM) 29.8% | viability, T/C (second compound 0.003 µM, first compound 0.316 µM) 29.5% | viability, T/C (second compound 0.003 µM, first compound 1 µM) 27.4% | viability, T/C (second compound 0.00949 µM, first compound 0.00316 µM) 31% | viability, T/C (second compound 0.00949 µM, first compound 0.01 µM) 25% | viability, T/C (second compound 0.00949 µM, first compound 0.0316 µM) 28.1% | viability, T/C (second compound 0.00949 µM, first compound 0.1 µM) 28.5% | viability, T/C (second compound 0.00949 µM, first compound 0.316 µM) 25.9% | viability, T/C (second compound 0.00949 µM, first compound 1 µM) 26.9% | viability, T/C (second compound 0.03 µM, first compound 0.00316 µM) 26.4% | viability, T/C (second compound 0.03 µM, first compound 0.01 µM) 23% | viability, T/C (second compound 0.03 µM, first compound 0.0316 µM) 25% | viability, T/C (second compound 0.03 µM, first compound 0.1 µM) 21% | viability, T/C (second compound 0.03 µM, first compound 0.316 µM) 16.9% | viability, T/C (second compound 0.03 µM, first compound 1 µM) 21.8% | viability, T/C (second compound 0.0949 µM, first compound 0.00316 µM) 18.4% | viability, T/C (second compound 0.0949 µM, first compound 0.01 µM) 16.8% | viability, T/C (second compound 0.0949 µM, first compound 0.0316 µM) 16% | viability, T/C (second compound 0.0949 µM, first compound 0.1 µM) 14.4% | viability, T/C (second compound 0.0949 µM, first compound 0.316 µM) 12.2% | viability, T/C (second compound 0.0949 µM, first compound 1 µM) 13.8% | viability, T/C (second compound 0.3 µM, first compound 0.00316 µM) 17.2% | viability, T/C (second compound 0.3 µM, first compound 0.01 µM) 13.7% | viability, T/C (second compound 0.3 µM, first compound 0.0316 µM) 14% | viability, T/C (second compound 0.3 µM, first compound 0.1 µM) 11.8% | viability, T/C (second compound 0.3 µM, first compound 0.316 µM) 12.9% | viability, T/C (second compound 0.3 µM, first compound 1 µM) 11.1%

CC1(C)CCC(Nc2ncc(C(F)(F)F)c(-c3c[nH]c4c(P(C)(C)=O)c(C#N)ccc34)n2)CN1 (stereo unspecified) + CCn1c(-c2cc(N3CCN(C)CC3)cnc2C(C)OC)c2c3cc(ccc31)-c1csc(n1)CC(NC(=O)C1CC1C)C(=O)N1CCCC(N1)C(=O)OCC(C)(C)C2
> 9.02: pIC50 (second compound 0.000949 µM) | pIC50 (second compound 0.003 µM) | pIC50 (second compound 0.00949 µM) | pIC50 (second compound 0.03 µM) | pIC50 (second compound 0.0949 µM) | pIC50 (second compound 0.3 µM)
inactive: viability, T/C [1] 33.9% | viability, T/C [2] 29.4% | viability, T/C [3] 21.1% | viability, T/C [4] 26.6% | viability, T/C [5] 21% | viability, T/C [6] 14.5% | viability, T/C [7] 26.6% | viability, T/C [8] 21.2% | viability, T/C [9] 16.8% | viability, T/C [10] 18.4% | viability, T/C [11] 16.7% | viability, T/C [12] 12.2% | viability, T/C [13] 21.4% | viability, T/C [14] 16.8% | viability, T/C [15] 16.1% | viability, T/C [16] 15.9% | viability, T/C [17] 12.8% | viability, T/C [18] 11.8% | viability, T/C [19] 17.6% | viability, T/C [20] 14.4% | viability, T/C [21] 13.4% | viability, T/C [22] 12.8% | viability, T/C [23] 10.5% | viability, T/C [24] 12.6% | viability, T/C [25] 15% | viability, T/C [26] 13.5% | viability, T/C [27] 10.5% | viability, T/C [28] 10.9% | viability, T/C [31] 13.1% | viability, T/C [32] 10.8% | viability, T/C [33] 10.7%
active: viability, T/C [29] 9.11% | viability, T/C [30] 10.1% | viability, T/C [34] 9.9% | viability, T/C [35] 9.8% | viability, T/C [36] 9.04%

CCc1c2c(nc3ccc(O)cc13)-c1cc3c(c(=O)n1C2)COC(=O)[C@]3(O)CC + CCn1c(-c2cc(N3CCN(C)CC3)cnc2C(C)OC)c2c3cc(ccc31)-c1csc(n1)CC(NC(=O)C1CC1C)C(=O)N1CCCC(N1)C(=O)OCC(C)(C)C2
active: viability, T/C [3] 4.92% | viability, T/C [4] 2.52% | viability, T/C [5] 1.86% | viability, T/C [6] 0.88% | viability, T/C [9] 4.98% | viability, T/C [10] 1.97% | viability, T/C [11] 1.43% | viability, T/C [12] 1.2% | viability, T/C [15] 5.03% | viability, T/C [16] 1.84% | viability, T/C [17] 1.75% | viability, T/C [18] 1.2% | viability, T/C [21] 5.17% | viability, T/C [22] 2.36% | viability, T/C [23] 1.52% | viability, T/C [24] 1.97% | viability, T/C [26] 10.9% | viability, T/C [27] 4.9% | viability, T/C [28] 3.03% | viability, T/C [29] 1.77% | viability, T/C [30] 2.09% | viability, T/C [32] 10.6% | viability, T/C [33] 4.9% | viability, T/C [34] 2.44% | viability, T/C [35] 2.32% | viability, T/C [36] 2.38%
> 9.02: pIC50 (second compound 0.000949 µM) | pIC50 (second compound 0.003 µM) | pIC50 (second compound 0.00949 µM) | pIC50 (second compound 0.03 µM) | pIC50 (second compound 0.0949 µM) | pIC50 (second compound 0.3 µM)
inactive: viability, T/C [1] 40.7% | viability, T/C [2] 21% | viability, T/C [7] 32.5% | viability, T/C [8] 13.4% | viability, T/C [13] 26.2% | viability, T/C [14] 11.2% | viability, T/C [19] 20.6% | viability, T/C [20] 11.9% | viability, T/C [25] 16% | viability, T/C [31] 15.7%
